Experimental data published in publication PMC6348446 (Journal of Medicinal Chemistry, 2018).

Key:
[1] = Parallel Artificial Membrane Permeability Assay (PAMPA); type: in vitro ADME; conditions: for recovery at 5 h, 10 µM / PAMPA pH 7.4 HIGH/MED/LOW: pH 7.4; for PAMPA pH 7.4 HIGH/MED/LOW: permeability class
Method: Test compound (10 µM) was incubated in pre-warmed plasma at 37 ᵒC (that is buffered to pH 7.4 in ratio of 70:30 plasma to buffer). Immediately, at time zero, then at 30, 60, 120, and 180 min, a 50 µL aliquot of the incubation mixture was removed and mixed with 200 µL acetonitrile containing Donepezil as the internal standard (50 ng/ml) to stop the reaction. The samples were centrifuged to sediment the precipitated protein and the plates then sealed prior to UPLC-MS/MS analysis using a Xevo TQ-S Micro (Waters Corporation, USA).
XLfit (IDBS, UK) was used to calculate the exponential decay and consequently the rate constant (k) from the ratio of peak area of test compound to internal standard at each time point. The half-life was calculated for each test compound from the rate by using the […]
Parallel Artificial Membrane Permeability Assay (PAMPA)
PAMPA was performed using a 96-well pre-coated BD Gentest™ PAMPA plate (BD Biosciences, U.K.). Each well was divided into two chambers; donor and acceptor, separated by a lipid-oil-lipid tri-layer constructed in a porous filter. The effective permeability, Pe, of the compound was measured at pH 7.4. Stock solutions (5 mM) of the compound were prepared in DMSO. The compound was then further diluted to 10 µM in phosphate buffered […]
saline at pH 7.4. […] The compound […]
dissolved in phosphate buffered saline was then added to the donor side of the membrane and phosphate buffered saline without compound was added to the acceptor side. The PAMPA plate was left at room temperature for 5 h. After which time, an aliquot (100 µL) was then […]
(§1) removed from both acceptor and donor compartments and mixed with acetonitrile (80 µL) containing an internal standard. The samples were centrifuged (10 min, 5 °C, 3270 g) to sediment precipitated protein and sealed prior to UPLC-MS/MS analysis using a Xevo TQ-S Micro (Waters Corp, USA). Pe was calculated as shown in the below equation: […]
(§2) CA(t) = peak area of compound present in acceptor well at time t = 18000 s Cequi = [CD(t) x VD + CA(t) x VA] / (VD + VA)
(§3) VA = acceptor well volume
(§4) CD(t) = peak area of compound present in donor well at time t = 18000 s Recovery of compound from donor and acceptor wells was calculated and data was only accepted when recovery exceeded 70%.
Using a fast gradient, reverse-phase HPLC method to determine the chromatographic hydrophobicity index (CHI) was determined as described by Camurri and Zaramella (ref. 3) and Valko et al. (ref. 4). Briefly, by plotting the retention time of a set of reference

[2] = CHI LogD determination (reverse-phase HPLC); type: physicochemical; conditions: reversed-phase HPLC (ACE Excel 3 SuperC18 column), pH 7.4; read-out: CHI LogD (pH7.4)
Method: as §1, §2, §3, §4
Using a fast gradient, reverse-phase HPLC method to determine the chromatographic hydrophobicity index (CHI) was determined as described by Camurri and Zaramella (ref. 3) and Valko et al. (ref. 4). Briefly, by plotting the retention time of a set of reference […]
compounds against known CHI values. The CHI value of test compounds was then calculated according to their retention time.
Test compounds were prepared as 0.25 mM solutions in 50:50 acetonitrile:water and analysed by reversed-phase HPLC-UV (wavelength 254 nm) using a ACE Excel 3 SuperC18, 3 µm, 50 x 2.1 mm column with a gradient of aqueous phase (10 mM ammonium acetate, pH 7.4) and mobile phase (acetonitrile).
Intrinsic clearance (Cli) experiments
Test compound (0.5 µM) was incubated with female CD1 mouse or human (mixed gender) liver microsomes (Xenotech LLCTM; 0.5 mg/mL 50mM potassium phosphate buffer, pH7.4) and the reaction initiated with addition of excess NADPH (8 mg/mL 50 mM potassium phosphate buffer, pH7.4). Immediately, at time zero, then at 3, 6, 9, 15 and 30 minutes an aliquot (50 µL) of the incubation mixture was removed and mixed with acetonitrile (100 µL) to stop the reaction. Internal standard was added to all samples, the samples centrifuged to sediment precipitated protein and the plates then sealed prior to […] analysis using […]
a Xevo TQ-S Micro (Waters corporation, USA).
XLfit (IDBS, UK) was used to calculate the exponential decay and consequently the rate constant (k) from the ratio of peak area of test compound to internal standard at each timepoint. The rate of intrinsic clearance (CLi) of each test compound was then calculated using the following calculation:
CLi(mL/min/g liver) = k x V x Microsomal protein yield
Where V (mL/mg protein) is the incubation volume/mg protein added and microsomal protein yield is taken as 52.5 mg protein/ g liver. Verapamil (0.5 µM) was used as a positive control to confirm acceptable assay performance.

[3] = molecular target: T1, VCB:PROTAC:BRD9-BD ternary complex (Homo sapiens, UniProt P40337+Q9H8M2); assay: AlphaLISA proximity assay of ternary complex formation; type: binding; conditions: for AlphaLISA max intensity: biotinylated VCB 100 nM, His6-BRD9-bromodomain 100 nM
T1 construct: the bromodomain (residues 134–239) for BRD9 (Q9H8M2); made in house; host or cells: Escherichia coli BL21(DE3)
Method: All assays were performed at room temperature in 384-well plates with a final assay volume of 25 μL per well, as described previously.[5] All reagents were prepared as 5× stocks diluted in 50 mM HEPES, pH 7.5, 100 mM NaCl, 0.1% (w/v) bovine serum albumin, and 0.02% (w/v) 3-[(cholamidopropyl)dimethylammonio]-1-propanesulfonate (CHAPS). Plates were sealed by transparent film and briefly centrifuged at 100g between additions of reagents. Biotinylated VCB (100 nM final) and His6-BRD9-bromodomain (100 nM final) were incubated with a range of PROTAC concentrations (0.5–2000 nM; two-in-one serial dilution) for 1 h. Streptavidin-coated donor beads and nickel chelate acceptor beads (PerkinElmer) were added to a final concentration of 10 μg mL^–1, and plates were incubated for another hour. Plates were read on a PHERAstar FS (BMG Labtech) using an optic module with an excitation wavelength of 680 nm and emission wavelength of 615 nm. Intensity values were plotted against PROTAC concentration on a log10 scale using GraphPad Prism, version 7. To obtain biotinylated-VCB, protein was mixed with EZ-link NHS-PEG4-biotin (Thermo Scientific) in a 1:1 molar ratio and incubated at room temperature for 1 h. The reaction was quenched using 1 M Tris-HCl, pH 7.5, and unreacted NHS-biotin was removed with a PD-10 MiniTrap desalting column (GE Healthcare) equilibrated with 20 mM HEPES, pH 7.5, 150 mM NaCl, and 1 mM DTT.

[4] = molecular target: T2, VCB (VHL-ElonginC-ElonginB complex) (Homo sapiens, UniProt P40337); assay: ITC, VCB titrated into PROTAC alone (binary); type: binding; conditions: 25 °C
T2 construct: His6 (cleaved yes); made in house; host or cells: Escherichia coli BL21(DE3)
T2 sequence (P40337 54-213 limits assumed): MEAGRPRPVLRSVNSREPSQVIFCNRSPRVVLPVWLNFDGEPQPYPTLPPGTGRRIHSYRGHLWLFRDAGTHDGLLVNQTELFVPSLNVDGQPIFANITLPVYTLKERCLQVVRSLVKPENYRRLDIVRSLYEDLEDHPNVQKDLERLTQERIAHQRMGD
T2 sequence (Q15369 17-112 partner limits assumed): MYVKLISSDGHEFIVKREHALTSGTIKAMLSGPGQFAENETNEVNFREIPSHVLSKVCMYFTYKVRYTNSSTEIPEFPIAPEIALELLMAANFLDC
T2 sequence (Q15370 1-104 partner limits assumed): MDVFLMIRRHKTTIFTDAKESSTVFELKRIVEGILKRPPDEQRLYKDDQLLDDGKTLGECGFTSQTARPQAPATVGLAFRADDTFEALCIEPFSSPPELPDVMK

T1 sequence (P40337 54-213 limits assumed): as the sequence (P40337 54-213 limits assumed) above
T1 sequence (Q15369 17-112 partner limits assumed): as the sequence (Q15369 17-112 partner limits assumed) above
T1 sequence (Q15370 1-104 partner limits assumed): as the sequence (Q15370 1-104 partner limits assumed) above
T1 sequence (Q9H8M2 134-239 limits assumed): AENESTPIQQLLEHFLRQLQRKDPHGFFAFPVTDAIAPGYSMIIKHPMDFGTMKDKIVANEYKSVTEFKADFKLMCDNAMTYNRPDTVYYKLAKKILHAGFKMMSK

Structure (SMILES) | recovery at 5 h, 10 µM ([1]; PAMPA) | Papp at 5 h, 10 µM ([1]; PAMPA, pH 7.4, 5 h, read-out: PAMPA pH 7.4 Pe) | PAMPA pH 7.4 HIGH/MED/LOW [1] | chromatographic logD [2] | increase in the maximum α intensity compared to VCB:5:BRD9-BD ([3]; AlphaLISA) | AlphaLISA max intensity [3] | N (stoichiometry), VCB into PROTAC alone [4] | ΔG, VCB into PROTAC alone [4] | ΔH, VCB into PROTAC alone [4] | –TΔS, VCB into PROTAC alone [4] | PAMPA pH 7.4 Pe ([1]; pH 7.4, 5 h) | PAMPA pH 7.4 HIGH/MED/LOW ([1]; listed as VZ185)
COc1cc(-c2cn(C)c(=O)c3cnccc23)cc(OC)c1CN1CCN(CCCCCOc2cc(-c3scnc3C)ccc2CNC(=O)[C@@H]2C[C@H](O)CN2C(=O)[C@@H](NC(=O)C2(F)CC2)C(C)(C)C)CC1 [cisVZ185] | 87% | 0.036 ×10⁻⁶ cm/s | LOW | 2.4 | – | – | – | – | – | – | – | –
COc1cc(-c2cn(C)c(=O)c3cnccc23)cc(OC)c1CN1CCN(CCOCCOCCOc2cc(-c3scnc3C)ccc2CNC(=O)[C@@H]2C[C@@H](O)CN2C(=O)[C@@H](NC(=O)C2(F)CC2)C(C)(C)C)CC1 [Compound 26, (2S,4R)-N-(2-(2-(2-(2-(4-(2,6-Dimethoxy-4-(2-methyl-1-oxo-1,2-dihydro-2,7-naphthyridin-4-yl)benzyl)piperazin-1-yl)ethoxy)ethoxy)ethoxy)-4-(4-methylthiazol-5-yl)benzyl)-1-((S)-2-(1-fluorocyclopropane-1-carboxamido)-3,3-dimethylbutanoyl)-4-hydroxypyrrolidine-2-carboxamide] | 94% | – | LOW and low cell permeability | 2 | 50% | 1.56 × 10^6 | 0.99 | –9.64 ± 0.03 kcal/mol | –6.56 ± 0.09 kcal/mol | –3.1 ± 0.1 kcal/mol | 0.01 nm/s | –
COc1cc(-c2cn(C)c(=O)c3cnccc23)cc(OC)c1CN1CCN(CCCCCOc2cc(-c3scnc3C)ccc2CNC(=O)[C@@H]2C[C@@H](O)CN2C(=O)[C@@H](NC(=O)C2(F)CC2)C(C)(C)C)CC1 [Compound 51, (2S,4R)-N-(2-((5-(4-(2,6-Dimethoxy-4-(2-methyl-1-oxo-1,2-dihydro-2,7-naphthyridin-4-yl)benzyl)piperazin-1-yl)pentyl)oxy)-4-(4-methylthiazol-5-yl)benzyl)-1-((S)-2-(1-fluorocyclopropane-1-carboxamido)-3,3-dimethylbutanoyl)-4-hydroxypyrrolidine-2-carboxamide] | – | – | – | 2.3 | – | 1.47 × 10^6 | 0.73 | –10.4 ± 0.2 kcal/mol | –7.04 ± 0.08 kcal/mol | –3.4 ± 0.1 kcal/mol | 0.01 nm/s | LOW and low cell permeability
COc1cc(-c2cn(C)c(=O)c3cnccc23)cc(OC)c1CN1CCN(CCOCCOCC(=O)N[C@H](C(=O)N2C[C@H](O)C[C@H]2C(=O)NCc2ccc(-c3scnc3C)cc2)C(C)(C)C)CC1 [Compound 5, (2S,4R)-1-((S)-2-(2-(2-(2-(4-(2,6-Dimethoxy-4-(2-methyl-1-oxo-1,2-dihydro-2,7-naphthyridin-4-yl)benzyl)piperazin-1-yl)ethoxy)ethoxy)acetamido)-3,3-dimethylbutanoyl)-4-hydroxy-N-(4-(4-methylthiazol-5-yl)benzyl)pyrrolidine-2-carboxamide] | – | – | – | – | – | 1.0 × 10^6 | 0.60 ± 0.01 | –10.2 ± 0.1 kcal/mol | –15.2 ± 0.1 kcal/mol | – | – | –
